Columns and labels:
FSH receptor [1] = biological target: T1, FSH receptor (Homo sapiens, UniProt P23945); test: FSH Receptor Radioligand Membrane Binding Standard Pharmacological Test Procedure; design: expressed in transfected cells; conditions: [125I]FSH binding to membranes of CHO cells stably transfected with the human FSH receptor
T1 sequence (P23945 18-695): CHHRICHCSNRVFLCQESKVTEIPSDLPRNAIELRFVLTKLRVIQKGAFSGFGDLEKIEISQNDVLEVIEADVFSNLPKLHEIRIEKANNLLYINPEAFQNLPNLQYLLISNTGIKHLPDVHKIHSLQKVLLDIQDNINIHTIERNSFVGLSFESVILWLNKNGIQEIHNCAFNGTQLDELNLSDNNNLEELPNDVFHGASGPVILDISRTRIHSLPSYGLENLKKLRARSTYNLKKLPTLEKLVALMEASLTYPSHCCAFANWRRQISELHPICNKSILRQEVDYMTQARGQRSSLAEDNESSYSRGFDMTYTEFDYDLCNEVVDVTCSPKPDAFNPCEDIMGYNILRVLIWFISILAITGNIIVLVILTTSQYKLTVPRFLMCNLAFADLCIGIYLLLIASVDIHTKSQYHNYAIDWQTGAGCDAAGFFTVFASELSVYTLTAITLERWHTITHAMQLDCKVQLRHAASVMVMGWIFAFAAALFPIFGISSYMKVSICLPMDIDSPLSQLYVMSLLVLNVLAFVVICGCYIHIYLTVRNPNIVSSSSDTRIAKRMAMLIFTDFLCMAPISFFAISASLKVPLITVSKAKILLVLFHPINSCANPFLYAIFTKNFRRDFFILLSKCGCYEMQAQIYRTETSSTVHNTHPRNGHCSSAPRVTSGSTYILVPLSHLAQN
Method: FSH Receptor Radioligand Membrane Binding Standard Pharmacological Test Procedure
Membrane Source: Chinese hamster ovarian cells stably transfected with the human FSH receptor were cultured (Ultra CHO medium containing 1% fetal bovine serum and 200 μg/mL G418) in and harvested. Cells were collected by centrifugation and resulting cell pellets were frozen and stored at −70° C.
Membrane Receptor Preparation: Frozen cell pellets were weighed and resuspended in binding buffer to a final concentration of 30 mg wet weight/mL. Cell suspension for each pellet was homogenized using a Tempest homogenizer (setting=1; 5 strokes; VirTis, Gardiner, N.Y.). Cell homogenates were pooled and 35 mL aliquots were transferred to 50-mL polypropylene copolymer centrifuge tubes (Nalgene cat. #3110-0500). Tubes were spun at 12,000 rpm (SS34 rotor) for 12 min at 4° C. Resulting supernatant fractions were discarded and pellets were stored at −70° C. until use. On the day of the procedure, 35 mL binding buffer was added to each tube (35 mL membrane suspension was sufficient for three 96-well plates). The membrane pellet was dispersed by trituration using a pipet. The resulting suspension wass homogenized using a Tempest homogenizer (3 strokes at setting=1).
Receptor Binding Test procedure: Membrane homogenate (100 μl) was added to each well of a 96-well microtiter plate (Falcon # 3077). All reactions were tested in triplicate. Test compound solutions (50 μl) were added to the designated wells. Total bound counts were determined by adding 50 μl binding buffer containing 4% DMSO to the designated wells. […] Plates were pre-incubated for 15 min at room temperature on shaking platform (setting=3). After preincubation [^125I]FSH (50 μl) was added to each well and plates were incubated for 2 h at room temperature on shaking platform (setting=3). The reaction was terminated by transfer of the membrane preparation to glass fiber filters (Blue Mat #11740; 102×256 mm; Skatron Instruments, Sterling, Va.) that had been pretreated with 1% BSA in wash buffer for at least 30 min, but not longer than 1 h using a 96-well microtiter vacuum harvester (Skatron Instruments). The membrane preparation was washed with 5 cycles of ice-cold wash buffer (200 μl/well/cycle) followed by a pulse wash of 3 cycles (100 μl/well/cycle). The total wash volume per well was 1.3 mL. The filters were dried by a 10 sec aspiration. Disks corresponding to each well of the microtiter plate were punched out of the filter mat into 12×75 mm polypropylene tubes. The radioactivity present on each of the disks was measured using a gamma counter.
An FSH dose response curve (0.001, 0.01, 0.1, 1, 10, and 100 nM) was generated for each binding procedure to monitor procedure to procedrue variability.
FSH Receptor Radioligand Membrane Binding Procedure Buffers and Reagents
Binding buffer is prepared in 11 volumes containing Trizma-HCl, MgCl2, CaCl2 and sodium azide, the pH was adjusted to 7.2 with NaOH, and stored at 4° C. until use. BSA was weighed out on the day of the procedure and added to the amount of buffer required for the procedure (usually 150 mL). The protease inhibitors were prepared as 1 mg/mL stocks (aprotinin, leupeptin, and phosphoramidon were prepared in binding buffer without BSA and protease inhibitors; pepstatin and PMSF were prepared in methanol), stored in 1 mL aliquots at −70° C., and added to the binding buffer on the day of the procedure.
Wash buffer was prepared containing Trizma-HCl, MgCl2 and EDTA, the pH was adjusted to 7.2 with NaOH, and stored at 4° C.
Filter Soak Buffer (pH 7.2)
BSA was weighed out on the day of the procedure and added to 300 mL of wash buffer. The filter soak buffer was used for two procedures before being discarded.
A portion of the stock solution was diluted in binding buffer to a concentration of 200 pM.
FSH Solution for Determining Non-specific Binding: Purified human FSH was prepared as a 100 μM solution in binding buffer without protease inhibitors. […]

FSH receptor [2] = biological target: T1, FSH receptor; test: In Vitro Bio-test Procedure of Agonists and Antagonists to the FSH Receptor (cAMP accumulation in CHO-3D2 cells); assay type: cell-based; design: expressed in transfected cells; host or cells: CHO-3D2 cells
Method: In Vitro Bio-test Procedure of Agonists and Antagonists to the FSH Receptor
The compounds were subsequently diluted in sterile procedure medium (Optimem (Gibco/BRL, Grand Island, N.Y.)/0.1% BSA) prior to use in the bio-procedure.
Preparation of CHO-3D2 Cells; CHO-3D2 cells were plated into 96-well Nunc tissue culture plates at a density of 30,000 cells/well in DMEM/F12 medium (Gibco/BRL, Grand Island, N.Y.) supplemented with 5% Fetal Bovine Serum (Hyclone, Fetal Clone II), 2 mM L-glutamine and penicillin/streptomycin (100 U/mL). Cells were plated one day prior to performing the bio-procedure.
Procedure: On the day of procedure, the wells were washed two times with 100 ul/well of pre-warmed (37 deg C.) procedure medium. After aspirating the second wash, an additional 100 ul of procedure medium was added to each well and the cells pre-incubated for 30-45 minutes at 37 deg C. In a humidified incubator with 5%CO2/95% air. The cells were then challenged with varying dilutions of the test substance(s) in a 50 ul total incubation volume in procedure medium for 30 minutes at 37 deg C. in the humidified incubator. The challenge was terminated by the addition of 50 ul of 0.2 N HCl to each well. CAMP accumulation in the medium was measured by radioimmunoassay.
Test Groups: In the 96-well format, the plate is organized into 12 columns each containing 8 rows of wells. The plate was split in half to test a single compound in both agonist and antagonist mode on the same plate.
For agonist mode, compounds were tested using 5 different concentrations in a dose-response paradigm using one column as a control (challenge medium alone) in agonist mode.
The 96-well format allowed for the capability to test 4 columns of compound, using one of the remaining columns for negative control (challenge medium alone) and the other remaining column for ampositive control (ED20 of FSH alone).
The doses chosen to test each compound were extrapolated from the initial screening process (receptor binding data). Along with the test compounds, FSH was run in agonist mode using doses ranging from 0.1 ng/mL-1000 ng/mL as a postive control. Cytotoxicity of the compounds were screened by treating cells with the highest concentration of each compound used in the cAMP procedure for 30 minutes followed by washing of the cells 2 times with 100 ul PBS. The cells were then incubated for 5 min at 37 deg C. in the presence of 50 ug/mL Fluorescein diacetate and 20 ug/mL Propidium iodide in 100 ul PBS. The cells were washed two times with 100 ul PBS followed by examination of the cells under a fluorescence microscope using a 490 nm filter. Viable cells stained green throughout, while dead cells had red fluorescent nuclei.
Analysis of Results: cAMP accumulation was expressed as fmol/mL. […] Data were analyzed statistically by analysis of variance and significant differences between treatments and control determined by Dunnett's test. In antagonist mode, a Duncan's test was used.
Reference Compounds: Test compounds were compared to the effect of purified or recombinant human FSH.

Compound | IC50 (FSH receptor [1]) [µM] | IC50 (FSH receptor [2]) [µM] | IC50 (FSH receptor [2]; antagonist mode, inhibition of hFSH-induced cAMP accumulation (ED20 of FSH, […]), CHO-3D2 cells) [µM]
COc1ccc(C(=O)Nc2ccc(CCc3ccc(NC(=O)c4ccc(OC)c(S(=O)(=O)N5CCOCC5)c4)cc3S(=O)(=O)O)c(S(=O)(=O)O)c2)cc1S(=O)(=O)N1CCOCC1 [Example 30p, 2,2′-(1,2-Ethanediyl)bis[5-[[4-methoxy-3-(4-morpholinylsulfonyl)benzoyl]amino]benzenesulfonic Acid]] | 2.5 | 11 | –
COc1ccc(C(=O)Nc2ccc(/C=C/c3ccc(NC(=O)c4ccc(OC)c(S(=O)(=O)N5CCCCC5)c4)cc3S(=O)(=O)O)c(S(=O)(=O)O)c2)cc1S(=O)(=O)N1CCCCC1 [Example 30h, 2,2′-[(E)-1,2-Ethenediyl]bis[5-[[4-methoxy-3-(1-piperidinylsulfonyl)benzoyl]amino]benzenesulfonic Acid]] | 7.3 | 8.1 | –
COC(=O)C=CCS(=O)(=O)c1cccc(C(=O)Nc2ccc(C=Cc3ccc(NC(=O)c4cccc(S(=O)(=O)CC=CC(=O)OC)c4)cc3S(=O)(=O)O)c(S(=O)(=O)O)c2)c1 [Example 32e, 4-{3-[4-(2-{4-{3-(3-Methoxycarbonyl-prop-2-ene-1-sulfonyl)-benzoylamino]-2-sulfo-phenyl}-vinyl)-3-sulfo-phenylcarbomoyl]-benzenesulfonyl}-but-2-enoic Acid, Methyl Ester] | 4.9 | – | 9
O=C(O)C=CCS(=O)(=O)c1cccc(C(=O)Nc2ccc(C=Cc3ccc(NC(=O)c4cccc(S(=O)(=O)CC=CC(=O)O)c4)cc3S(=O)(=O)O)c(S(=O)(=O)O)c2)c1 [Example 36c, 4-{3-[4-(2-{4-[3-(3-Carboxy-prop-2-ene-1-sulfonyl)-benzoylamino]-2-sulfo-phenyl}-vinyl)-3-sulfo-phenylcarbomoyl]-benzenesulfonyl}-but-2-enoic Acid] | 5.4 | 9.5 | –
CS(=O)(=O)c1ccc(C(=O)Nc2ccc(/C=C/c3ccc(NC(=O)c4ccc(S(C)(=O)=O)s4)cc3S(=O)(=O)O)c(S(=O)(=O)O)c2)s1 [Example 32b, 2,2′-[(E)-1,2-Ethenediyl]bis[5-[[[5-(methylsulfonyl)-2-thienyl]carbonyl]amino]benzenesulfonic Acid]] | 3.2 | 2.6 | –
COCCOCCSc1ccc(C(=O)Nc2ccc(/C=C/c3ccc(NC(=O)c4ccc(SCCOCCOC)c(S(=O)(=O)N5CCOCC5)c4)cc3S(=O)(=O)O)c(S(=O)(=O)O)c2)cc1S(=O)(=O)N1CCOCC1 [Example 32o] | 1.5 | 1 | –

Second part, the compound after the results:

IC50 (FSH receptor [1]) [µM] | IC50 (FSH receptor [2]) [µM] | IC50 (FSH receptor [2]; antagonist mode, inhibition of hFSH-induced cAMP accumulation (ED20 of FSH, […]), CHO-3D2 cells) [µM] | Compound
7 | 12 | – | COc1ccc(C(=O)Nc2ccc(CCc3ccc(NC(=O)c4ccc(OC)c(S(=O)(=O)N5CCCC5)c4)cc3S(=O)(=O)O)c(S(=O)(=O)O)c2)cc1S(=O)(=O)N1CCCC1 [Example 43g, 2,2′-(1,2-Ethanediyl)bis[5-[[4-methoxy-3-(1-pyrrolidinylsulfonyl)benzoyl]amino]benzenesulfonic Acid]]
2 | 2.1 | – | O=C(CS(=O)(=O)c1ccc(C(=O)Nc2ccc(/C=C/c3ccc(NC(=O)c4ccc(S(=O)(=O)CC(=O)NCCO)cc4)cc3S(=O)(=O)O)c(S(=O)(=O)O)c2)cc1)NCCO [Example 37a, 5-[[4-[[2-[(2-Hydroxyethyl)amino]-2-oxoethyl]sulfonyl]benzoyl]amino]-2-[(E)-2-[4-[[4-[[2-[(2-hydroxyethyl)amino]-2-oxoethyl]sulfonyl]benzoyl]amino]-2-sulfo-phenyl]ethenyl]benzenesulfonic Acid]
17 | 28 | – | COc1ccc(C(=O)Nc2ccc(CCc3ccc(NC(=O)c4ccc(OC)c(S(=O)(=O)N5CCCCC5)c4)cc3S(=O)(=O)O)c(S(=O)(=O)O)c2)cc1S(=O)(=O)N1CCCCC1 [Example 43b]
12 | 12 | – | COCCOc1ccc(C(=O)Nc2ccc(CCc3ccc(NC(=O)c4ccc(OC)c(S(=O)(=O)N5CCOCC5)c4)cc3S(=O)(=O)O)c(S(=O)(=O)O)c2)cc1 [Example 43h, 5-[[4-(2-Methoxyethoxy)benzoyl]amino]-2-[2-[4-[[4-methoxy-3-(4-morpholinylsulfonyl)benzoyl]amino]-2-sulfophenyl]ethyl]benzenesulfonic Acid]
5 | 6.4 | – | COCCOc1ccc(C(=O)Nc2ccc(CCc3ccc(NC(=O)c4ccc(OCCOC)c(S(=O)(=O)N5CCOCC5)c4)cc3S(=O)(=O)O)c(S(=O)(=O)O)c2)cc1S(=O)(=O)N1CCOCC1 [Example 43f, 2,2′-(1,2-Ethanediyl)bis[5-[[4-(2-methoxyethoxy)-3-(4-morpholinylsulfony)benzoyl]amino]benzenesulfonc Acid]]

Reference: patent US6355633B1, “Aryl sulfonic acids and derivatives as FSH antagonists” (American Home Products Corporation, priority 1999, dated 2002)
